Here are results for 30 compounds from patent publication US20070149508A1, “Six membered heteroaromatic inhibitors targeting resistant kinase mutations” (TargeGen, Inc., priority 2005, published 2007).

Where a name gives a salt, the structure may show the parent alone.

One test addresses T1, Abl (T315I) (Homo sapiens, UniProt P00519, T315I).
T1 construct: purchased Upstate
In words: Abl (T315I) Kinase Assay (KinaseGlo luminescent detection of residual ATP). Particulars: Abl (T315I) IC50 (nM), Abl (T315I) (Upstate, 17 ng/well), Abltide 100 uM, ATP 500 nM, 60 minutes at 37° C. The test is classed as biochemical. As for the experimental part:
The assay was performed similarly to the Abl kinase assay. Abl (T315I) (Upstate, 17 ng/well); Abltide substrate (100 uM) and ATP (500 nM) comprised the reaction mixture. Compound was similarly diluted, and the reaction plate was incubated for 60 minutes at 37° C.

Another test concerns the target Abl kinase (Homo sapiens, UniProt P00519). Kind of test: biochemical. Particulars: Abl IC50 (nM), Abl kinase (Invitrogen, 20 ng/well), Abltide 100 μM, ATP 500 nM, 37° C. for 60 minutes, top concentration 10 uM.

Method for Abl kinase: Kinase activity was assessed using luminescent detection (KinaseGlo, Promega) of residual ATP concentration in reaction mixtures containing optimized levels of kinase, substrate, ATP, compound and appropriate buffers. Kinase, substrate and ATP concentrations were determined per the supplier's recommendations. Briefly, this involved running concentration curves to select for optimal signal.
The reaction mixture (50 ul/well) consisted of Abl kinase (Invitrogen, 20 ng/well); Abltide peptide substrate (Upstate, 100 μM) and ATP (500 nM). Each compound was evaluated at a top concentration of 10 uM with 1:3 dilution steps, 10 dilution steps total. Compound was diluted into DMSO and transferred to the reaction plate, resulting in a final DMSO concentration of 2%. This amount of DMSO was determined not to interfere with the enzyme. The reaction was conducted at 37° C. for 60 minutes. The degree of inhibition was assessed using IC50 determinations, which were obtained using GraphPad Prism4.

As a reminder, the IC50 is the concentration needed to halve the response being measured. As for `Nc1nc2ccc(/C=C/c3cnc(Nc4ccc(C(=O)N5CCNCC5)cc4)nc3)cc2s1` [(4-{5-[2-(2-Amino-benzothiazol-6-yl)-vinyl]-pyrimidin-2-ylamino}-phenyl)-piperazin-1-yl-methanone], the IC50 against Abl (T315I) was found to be 87 nM; on Abl kinase it was 360 nM.
In the same order, the values of `COCCN1CCN(S(=O)(=O)c2ccc(Nc3ncc(/C=C/c4ccc5nc(N)sc5c4)cn3)cc2)CC1` [6-[2-(2-{4-[4-(2-Methoxy-ethyl)-piperazine-1-sulfonyl]-phenylamino}-pyrimidin-5-yl)-vinyl]-benzothiazol-2-ylamine] are 380 nM and 1150 nM.
Taken in the same sequence, the figures for `O=S(=O)(c1ccc(Nc2ncc(/C=C/c3cccc(O)c3)cn2)cc1NCCO)N1CCNCC1` [3-{(E)-2-[2-({3-[(2-hydroxyethyl)amino]-4-(piperazin-1-ylsulfonyl)phenyl}amino)pyrimidin-5-yl]vinyl}phenol trifluoroacetic acid salt] were 78 nM and 7.3 nM.
Taken in the same sequence, the figures for `O=S(=O)(c1ccc(Nc2ncc(/C=C/c3cccc4[nH]ncc34)cn2)cc1)N1CCCNCC1` [[4-([1,4]Diazepane-1-sulfonyl)-phenyl]-{5-[2-(1H-indazol-4-yl)-vinyl]-pyrimidin-2-yl}-amine] were 184 nM and 12 nM.
Turning to `O=S(=O)(c1ccc(Nc2ncc(/C=C/c3cccc(C(F)(F)F)c3)cn2)cc1)C1CCNCC1` [5-(3-(trifluoromethyl)styryl)-N-(4-(piperidin-4-ylsulfonyl)phenyl)pyrimidin-2-amine. TFA], the results for the IC50 at Abl (T315I) and at Abl kinase were 3200 nM and 565 nM, respectively.
Taken in the same sequence, the figures for `Nc1nc2cc(/C=C/c3cnc(Nc4ccc(S(=O)(=O)C5CCNCC5)cc4)nc3)ccc2s1` [5-((E)-2-(2-(4-(piperidin-4-ylsulfonyl)phenylamino)pyrimidin-5-yl)vinyl)benzo[d]thiazol-2-amine Hydrochloride] were 416 nM and 101 nM.
In the same order, the values of `Nc1nc2ccc(/C=C/c3cnc(Nc4ccc(S(=O)(=O)CCCN5CCCC5)cc4)nc3)cc2s1` [6-{(E)-2-[2-({4-[(3-pyrrolidin-1-ylpropyl)sulfonyl]phenyl}amino)pyrimidin-5-yl]vinyl}-1,3-benzothiazol-2-amine trifluoroacetic acid salt] are 173 nM and 81 nM.
In the same order, the values of `Cc1cc(S(=O)(=O)N2CCNCC2)ccc1Nc1ncc(/C=C/c2cccc(O)c2)cn1` [3-(2-{2-[2-Methyl-4-(piperazine-1-sulfonyl)-phenylamino]-pyrimidin-5-yl}-vinyl)-phenol] are 10400 nM and 3450 nM.
For `O=C(c1ccc(Nc2ncc(/C=C/c3cccc4[nH]ncc34)cn2)cc1)N1CCNCC1` [(4-(5-((E)-2-(1H-indazol-4-yl)vinyl)pyrimidin-2-ylamino)phenyl)(piperazin-1-yl)methanone hydrochloride], the IC50 was 231 nM on Abl (T315I) and 20 nM against Abl kinase.
On to `O=S(=O)(NCCCO)c1ccc(Nc2ncc(/C=C/c3cccc(O)c3)cn2)cc1` [4-{5-[2-(3-Hydroxy-phenyl)-vinyl]-pyrimidin-2-ylamino}-N-(3-hydroxy-propyl)-benzenesulfonamide], for which the IC50 against Abl (T315I) worked out at 112 nM; on Abl kinase it was 8.9 nM.
In the same order, the values of `C(=C\c1cccc2[nH]ccc12)/c1cnc(Nc2ccc(OC3CCNCC3)cc2)nc1` [5-[(E)-2-(1H-indol-4-yl)vinyl]-N-[4-(piperidin-4-yloxy)phenyl]pyrimidin-2-amine trifluoroacetic acid salt] are 820 nM and 21 nM.
In the same order, the values of `O=S(=O)(NC1CCNCC1)c1ccc(Nc2ncc(/C=C/c3cccc4[nH]ccc34)cn2)cc1` [4-{5-[2-(1H-Indol-4-yl)-vinyl]-pyrimidin-2-ylamino}-N-piperidin-4-yl-benzenesulfonamide] are 282 nM and 12 nM.
Taken in the same sequence, the figures for `O=S(=O)(NC1CCCNC1)c1ccc(Nc2ncc(/C=C/c3cccc(O)c3)cn2)cc1` (stereo not drawn) [4-{5-[2-(3-Hydroxy-phenyl)-vinyl]-pyrimidine-2-ylamino}-N-piperdin-3-yl-benzenesulfonamide Hydrochloride] were 60 nM and 12 nM.
Take `O=S(=O)(c1ccc(Nc2ncc(/C=C/c3cccc4[nH]ncc34)cn2)cc1)C1CCNCC1` [5-((E)-2-(1H-indazol-4-ylsulfonyl)phenyl)pyrimidin-yl)vinyl)-N-(4-(piperidin-4-2-amine trifluoroacetic acid salt]: the half-inhibitory concentration (IC50) against Abl (T315I) was 29 nM; against Abl kinase, 1.5 nM.
Taken in the same sequence, the figures for `O=S(=O)(NCCN1CCCC1)c1ccc(Nc2ncc(/C=C/c3cc(O)ccc3F)cn2)cc1` [4-{5-[2-(2-Fluoro-5-hydroxy-phenyl)-vinyl]-pyrimidin-2-ylamino}-N-(2-pyrrolidin-1-yl-ethyl)-benzenesulfonamide] were 240 nM and 25 nM.
`Nc1nc2ccc(/C=C/c3cnc(Nc4ccc(S(=O)(=O)N5CCNCC5CO)cc4)nc3)cc2s1` (stereo not drawn) [(1-{[4-({5-[(E)-2-(2-amino-1,3-benzothiazol-6-yl)vinyl]pyrimidin-2-yl}amino)phenyl]sulfonyl}piperazin-2-yl)methanol]: the IC50 against Abl (T315I) came to 115 nM; against Abl kinase, 119 nM.
On to `O=S(=O)(c1ccc(Nc2ncc(/C=C/c3ccc4[nH]ccc4c3)cn2)cc1)C1CCNCC1` [{5-[2-(1H-Indol-5-yl)-vinyl]-pyrimidin-2-yl}-[4-(piperidine-4-sulfonyl)-phenyl]-amine], for which the results for the half-maximal inhibitory concentration (IC50) against Abl (T315I) and at Abl kinase were 138 nM and 37 nM, respectively.
Take `C(=C\c1cccc2[nH]ccc12)/c1cnc(Nc2ccc(C3CCNCC3)cc2)nc1` [{5-[2-(1H-Indol-4-yl)-vinyl]-pyrimidin-2-yl}-(4-piperidin-4-yl-phenyl)-amine]: the IC50 came to 1320 nM on Abl (T315I) and 42 nM on Abl kinase.
`O=S(=O)(c1ccc(Nc2ncc(/C=C/c3ccc(-c4ncc[nH]4)cc3)cn2)cc1)C1CCNCC1` [5-((E)-(4-(1H-imidazol-2-yl)styryl))-N-(4-(piperidin-4-ylsulfonyl)phenyl)pyrimidin-2-amine hydrochloride]: the IC50 at Abl (T315I) came out at 1290 nM; against Abl kinase, 374 nM.
`CN(C1CCNCC1)S(=O)(=O)c1ccc(Nc2ncc(/C=C/c3ccc4nc(N)sc4c3)cn2)cc1` [4-{5-[2-(2-Amino-benzothiazol-6-yl)-vinyl]pyrimidin-2-ylamino}-N-methyl-N-piperidin-4-yl-benzensulfonamide Hydrochloride]: the concentration for half-maximal inhibition (IC50) amounted to 45 nM at Abl (T315I) and 93 nM against Abl kinase.
In the same order, the values of `O=S(=O)(c1ccc(Nc2ncc(/C=C/c3cc(C(F)(F)F)cc4[nH]cnc34)cn2)cc1)C1CCNCC1` [5-((E)-2-(6-(trifluoromethyl)-1H-benzo[d]imidazol-4-yl)vinyl)-N-(4-(piperidin-4-ylsulfonyl)phenyl)pyrimidin-2-amine.] are 666 nM and 245 nM.
In the same order, the values of `CN(C)CCN(C1CCNCC1)S(=O)(=O)c1ccc(Nc2ncc(/C=C/c3ccc4nc(N)sc4c3)cn2)cc1` [4-({5-[(E)-2-(2-amino-1,3-benzothiazol-6-yl)vinyl}pyrimidin-2-yl}amino)-N-[2-(dimethylamino)ethyl]-N-piperidin-4-ylbenzenesulfonamide] are 38 nM and 109 nM.
Taken in the same sequence, the figures for `Cc1cc(Nc2ncc(/C=C/c3ccc4nc(N)sc4c3)cn2)ccc1S(=O)(=O)N1CCCNCC1` [(E)-6-(2-(2-(4-(1,4-diazepan-1-ylsulfonyl)-3-methylphenylamino)pyrimidin-5-yl)vinyl)benzo[d]thiazol-2-amine] were 593 nM and 1060 nM.
Turning to `O=S(=O)(c1ccc(Nc2ncc(/C=C/c3cccc4[nH]ccc34)cn2)cc1)N1CCCNCC1` [[4-([1,4]Diazepane-1-sulfonyl)-phenyl]-{5-[2-(1H-indol-4-yl)-vinyl]-pyrimidin-2-yl}-amine], the IC50 was determined as 195 nM on Abl (T315I) and 13 nM against Abl kinase.
Taken in the same sequence, the figures for `O=S(=O)(NCCO)c1ccc(Nc2ncc(/C=C/c3ccccc3)cn2)cc1N1CCNCC1` [N-(2-hydroxyethyl)-4-({5-[(E)-2-phenylvinyl]pyrimidin-2-yl}amino)-2-piperazin-1-ylbenzenesulfonamide trifluoroacetic acid salt] were 7340 nM and 406 nM.
Taken in the same sequence, the figures for `NC1CCN(S(=O)(=O)c2ccc(Nc3ncc(/C=C/c4cccc5[nH]ncc45)cn3)cc2)CC1` [N-{4-[(4-aminopiperidin-1-yl)sulfonyl]phenyl}-5-[(E)-2-(1H-indazol-4-yl)vinyl]pyrimidin-2-amine] were 173 nM and 5.1 nM.
With `O=S(=O)(c1ccc(Nc2ncc(/C=C/c3cccc(O)c3)cn2)cc1F)N1CCNCC1` [3-(2-{2-[3-Fluoro-4-(piperazine-1-sulfonyl)-phenylamino]-pyrimidin-5-yl}-vinyl)-phenol], the concentration for half-maximal inhibition (IC50) against Abl (T315I) came to 266 nM; against Abl kinase, 56 nM.
`O=S(=O)(NCCN1CCCC1)c1ccc(Nc2ncc(/C=C/c3cccc(O)c3)cn2)cc1` [4-{5-[2-(3-Hydroxy-phenyl)-vinyl]-pyrimidin-2-ylamino}-N-(2-pyrrolidin-1-yl-ethyl)-benzenesulfonamide]: the values for the IC50 against Abl (T315I) and on Abl kinase were 141 nM and 7.1 nM, respectively.
In the same order, the values of `Nc1cccc(/C=C/c2cnc(Nc3ccc(S(=O)(=O)C4CCNCC4)cc3)nc2)c1` [15-(3-aminostyryl)-N-(4-(piperidin-4-ylsulfonyl)phenyl)pyrimidin-2-amine Hydrochloride] are 561 nM and 31 nM.
For `Nc1nc2ccc(/C=C/c3cnc(Nc4ccc(S(=O)(=O)N5CCNCC5)c(F)c4)nc3)cc2s1` [6-[(E)-2-(2-{[3-fluoro-4-ylsulfonyl)phenyl]amino}pyrimidin-5-yl)vinyl]-1,3-benzothiazol-2-amine], the half-maximal inhibitory concentration (IC50) against Abl (T315I) came to 94 nM; against Abl kinase it was 100 nM.
